Assay results reported in patent publication US12643867B2, “Compositions and uses thereof” (University of Virginia Patent Foundation, priority 2017, dated 2026).

Legend:
Assay type in all cases: cell-based
[1] = biological target: T1, recombinant hDGKa (Homo sapiens, UniProt P23743); assay: JWB003 labeling in live cells (in situ); details: 25 μM; transfected HEK293T cells
T1 construct: expressed in transfected cells; host or cells: HEK293T
Description: (§1) • 1. HEK293T cells were harvested in cold PBS. • a. Cells were transferred to Eppendorf tube. • 2. Cells were lysed via tip sonicator. • 3. Cells were fractionated into membrane and soluble fraction. • a. 100,000×G for 45 minutes at 4 degree. • b. Supernatant was separated from cell pellet. • 4. Dilute proteomes to 1 mg/mL in PBS and aliquot appropriate reaction volume (49 μL for probe only; 48 μL for competition+probe) • 5. Cells were treated with 50× inhibitor. • a. Incubated for 1Hr at 37 degree. • 6. Cells were treated with 50× Probe (JWB003). • a. Incubated for 1Hr at 37 degree. • 7. Add 6 μL of master mix to each alkyne probe-labeled sample. • a. 1 μL of 1.25 mM Rh-N3 • b. 1 μL of fresh 50 mM TCEP • c. 3 μL of 1.7 mM TBTA stock • d. 1 μL of 50 mM CuSO4 • 8. Vortex samples. • 9. Incubate at room temperature for 1 hr • 10. Quench with 17 μL of 4×SDS-PAGE loading buffer+βME and vortex tubes. • 11. Analyze 30 μL samples by SDS-PAGE immediately. [B] Labeling HEK293T Cells to Determine Target Proteins of JWB003 in Live Cells (In Situ) • 1. Complete media was removed from HEK293T cells and replaced with serum free media containing JWB003 at the appropriate final concentration • a. Cells were placed in incubator for appropriate time at 37 degree 5% CO2 • 2. Cells were washed • a. 2× warm PBS • b. 2× cold PBS • c. Harvest cells in cold PBS • 3. Cells were transferred to Eppendorf tube • 4. […]

[2] = test system: recombinant DGK isoforms (total of 10); assay: JWB003 labeling in live cells (in situ); details: live HEK293T cells
Description: as §1

[3] = biological target: T2, human PKCa (hPKCa) (Homo sapiens, UniProt P17252); assay: JWB003 labeling of C1 domain protein kinases; details: transfected HEK293T cells
T2 construct: expressed in transfected cells; host or cells: HEK293T
Description: as §1

[4] = test system: Bone Marrow Derived Macrophages (BMDMs), noncancerous primary cells; assay: WST-1 Cell Proliferation Assay; details: ritanserin highest concentration tested 50 μM; staurosporine 1 μM
[5] = test system: H82 cells; assay: WST-1 Cell Proliferation Assay; details: ritanserin, ketanserin 5-50 μM; staurosporine 1 μM
Description: (§2) WST-1 Cell Proliferation Assays. Tumor cells were plated in transparent tissue-culture treated 96-well plates at a density of 100,000 cells/mL (A549, H1650) or 200,000 cells/mL (H82) in a volume of 100 μL per well. Cells were treated with dimethyl sulfoxide (DMSO) vehicle or inhibitors dissolved in DMSO at the indicated concentrations (final DMSO concentration of 0.5%). Cells were allowed to grow for indicated times at 37° C. under 5% CO2. Afterwards, equal parts of WST-1 developer reagent and electron mediator solution were mixed and 10 μL of the resulting solution (‘WST-1 reagent’) were added to each well. Plates were shaken in an orbital shaker for 60 s and then returned to the incubator for two hrs. Plates were again shaken followed measurement of absorbance at 450 nm. Data were normalized to DMSO-treated wells and significance values determined with one-way ANOVA.

[6] = test system: H1650 cells; assay: WST-1 Cell Proliferation Assay; details: ritanserin, ketanserin 5-50 μM; staurosporine 1 μM
Description: as §2

[7] = test system: A549 cells; assay: WST-1 Cell Proliferation Assay; details: ritanserin, ketanserin 5-50 μM; staurosporine 1 μM
Description: as §2

T1 sequence (P23743 whole entry): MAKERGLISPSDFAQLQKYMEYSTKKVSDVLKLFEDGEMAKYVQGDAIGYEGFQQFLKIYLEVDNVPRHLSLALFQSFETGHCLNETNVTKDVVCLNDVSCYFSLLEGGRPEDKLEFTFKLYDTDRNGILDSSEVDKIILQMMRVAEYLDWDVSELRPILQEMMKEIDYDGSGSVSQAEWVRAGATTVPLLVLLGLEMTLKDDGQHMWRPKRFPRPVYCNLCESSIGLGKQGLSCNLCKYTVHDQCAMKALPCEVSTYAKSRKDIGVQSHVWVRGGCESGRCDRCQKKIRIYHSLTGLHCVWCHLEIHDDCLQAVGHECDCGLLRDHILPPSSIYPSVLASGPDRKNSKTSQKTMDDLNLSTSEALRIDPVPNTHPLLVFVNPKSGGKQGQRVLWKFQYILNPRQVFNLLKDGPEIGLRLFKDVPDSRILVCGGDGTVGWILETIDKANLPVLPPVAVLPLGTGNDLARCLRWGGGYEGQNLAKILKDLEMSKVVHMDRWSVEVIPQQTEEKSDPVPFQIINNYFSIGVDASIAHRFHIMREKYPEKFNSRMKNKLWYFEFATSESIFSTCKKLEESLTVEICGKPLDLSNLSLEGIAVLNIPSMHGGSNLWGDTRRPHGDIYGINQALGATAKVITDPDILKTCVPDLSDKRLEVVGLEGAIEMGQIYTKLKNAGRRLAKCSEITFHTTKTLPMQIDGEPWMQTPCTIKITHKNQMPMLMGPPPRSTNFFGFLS

SMILES | time at which probe labeling of hDGKa saturates [1] [min] | labeling of recombinant DGK isoforms [2] | labeling of hPKCa [3] | cell killing of noncancerous primary cells (WST-1), words [4] | cell viability (WST-1), words [5] | cell viability (WST-1), words [6] | cell viability (WST-1), words [7]
C#CCCC(=O)NCCN1CCN(C/C=C/C(=O)N2CCC(=C(c3ccc(F)cc3)c3ccc(F)cc3)CC2)CC1 [JWB003] | 60 | effective labeling of all ten proteins in live cells | labeling of hPKCa in the membrane but not soluble fraction |  |  |  | 
CN[C@@H]1C[C@H]2O[C@@](C)([C@@H]1OC)n1c3ccccc3c3c4c(c5c6ccccc6n2c5c31)C(=O)NC4 [Staurosporine] |  |  |  | general cytotoxicity across all cells tested | general cytotoxicity across all cells tested | general cytotoxicity across all cells tested | general cytotoxicity across all cells tested
